# Values of other authors in patent US11160278B2, “Use of active substances for controlling virus infection in plants” (Bayer CropScience Aktiengesellschaft, priority 2016, dated 2021).
# Columns and labels:
# [1] = test system: Pseudomonas syringae pv tabaci
# [2] = test system: tobacco mosaic virus (TMV); details: also NahG transgenic tobacco
structure (smiles),measurement,setting,value
COC(=O)N(OC)c1ccccc1COc1ccn(-c2ccc(Cl)cc2)n1 [Pyraclostrobin],resistance of tobacco against infection by Pseudomonas syringae pv tabaci,[1],enhance the resistance
same,resistance of tobacco against infection by TMV,[2],enhance the resistance
